Patent publication US20250154172A1, “PRMT5 INHIBITORS AND USES THEREOF” (Gilead Sciences, Inc., priority 2023, published 2025)

System: HCT116 MTAP-deleted cell lines
Experiment: Cell viability assay for HCT116 isogenic pair (CellTitre-Glo, 7 days)
Format: cell-based
Details: Homo sapiens, HCT-116, 168 h, 7 days of treatment, cell line not given
Description: Control compounds were analyzed in parallel each time for quality control.
In Brief, on Day −1, a serial dilution of stock compounds in DMSO was performed using BioMek liquid handlers and dispensed using Echo acoustic dispenser into 384 well plates. Both tool compounds and sample compounds were spotted in the same plate for a dose response of PRMT5 inhibitors. Compound plates were stored as frozen until the cells were ready for seeding.
On Day 0, 100 HCT WT or HCT116 MTAP-deleted cells were seeded in compound-containing 384 well plates (50 μl per well) in RPMI 1640 media supplemented with 10% heat inactivated fetal bovine serum, Glutamax and penicillin streptomycin using EL460 liquid dispenser 5 μl cassette (BioTek, part no. 7170011). After equilibrating the plate in room temperature, the cells were incubated for 7 days inside the sealed incubator set at 37° C. with 90% humidity and 5% CO2.
On Day 7, the viability of cells was measured using a CTG assay kit (CellTitre-Glo; Promega cat no. G7573). Shortly, 40 μl per well of luminescent cell viability assay reagent were dispensed using EL460 liquid dispenser 5 μl cassette. CTG luminescence signal was measured using an EnVision plate reader (PerkinElmer) in accordance with manufacturer's instruction. The CCso values for each compound after 7 days of treatment were calculated using 4 parameter non-linear logistical curve fit.
For the cell viability assay ie CC50 shown in nM in Table 3.

Compound	CC50
Cn1ncc2c3cc(C(=O)N4CCC[C@@H]5Oc6cc(C(F)(F)F)cc(F)c6[C@@H]54)ncc3nc(N)c21 [Example Ca-52, (4-amino-3-methyl-3H-pyrazolo[3,4-c][1,7]naphthyridin-8-yl)((4aS,9bS)-9-fluoro-7-(trifluoromethyl)-3,4,4a,9b-tetrahydrobenzofuro[3,2-b]pyridin-1(2H)-yl)methanone]	48 nM
Cn1ncc2c(N)nc3cnc(C(=O)N4CCO[C@@H]5Cc6cc(OC(F)(F)F)ccc6[C@@H]54)cc3c21 [Example Ca-53, (4-amino-1-methyl-1H-pyrazolo[4,3-c][1,7]naphthyridin-8-yl)((4aS,9aR)-7-(trifluoromethoxy)-2,3,9,9a-tetrahydroindeno[2,1-b][1,4]oxazin-4(4aH)-yl)methanone]	33 nM
Cn1ncc2c(N)nc3cnc(C(=O)N4CCO[C@@H]5Cc6cc(C(F)(F)F)ccc6[C@@H]54)cc3c21 [Example Ca-54, (4-amino-1-methyl-1H-pyrazolo[4,3-c][1,7]naphthyridin-8-yl)((4aS,9aR)-7-(trifluoromethyl)-2,3,9,9a-tetrahydroindeno[2,1-b][1,4]oxazin-4(4aH)-yl)methanone]	16 nM
Cn1ncc2c(N)nc3cc(F)c(C(=O)N4CCC[C@@H]5Oc6cc(-c7cnn(C(F)(F)F)c7)ccc6[C@@H]54)cc3c21 [Example Ca-56, (4-amino-7-fluoro-1-methyl-1H-pyrazolo[4,3-c]quinolin-8-yl)((4aS,9bS)-7-(1-(trifluoromethyl)-1H-pyrazol-4-yl)-3,4,4a,9b-tetrahydrobenzofuro[3,2-b]pyridin-1(2H)-yl)methanone]	4 nM
Nc1nc2cnc(C(=O)N3C[C@@H](F)C[C@@H]4Oc5cc(C(F)(F)F)cc(F)c5[C@@H]43)cc2c2c1COC2 [Example Ca-57, (4-amino-1,3-dihydrofuro[3,4-c][1,7]naphthyridin-8-yl)((3S,4aS,9bS)-3,9-difluoro-7-(trifluoromethyl)-3,4,4a,9b-tetrahydrobenzofuro[3,2-b]pyridin-1(2H)-yl)methanone]	20 nM
[2H]C1([2H])CC[C@@H]2Oc3cc(C(F)(F)F)cc(F)c3[C@@H]2N1C(=O)c1cc2c3c(c(N)nc2cn1)COC3 [Example Ca-58, (4-amino-1,3-dihydrofuro[3,4-c][1,7]naphthyridin-8-yl)((4aS,9bS)-9-fluoro-7-(trifluoromethyl)-3,4,4a,9b-tetrahydrobenzofuro[3,2-b]pyridin-1(2H)-yl-2,2-d2)methanone]	9 nM
Nc1nc2cnc(C(=O)N3CC[C@H]4C[C@@H]3c3c(F)cc(C(F)(F)F)cc3O4)cc2c2c1COC2 [Example Ca-59, (4-amino-1,3-dihydrofuro[3,4-c][1,7]naphthyridin-8-yl)((2S,6R)-7-fluoro-9-(trifluoromethyl)-3,4-dihydro-2H-2,6-methanobenzo[b][1,5]oxazocin-5(6H)-yl)methanone]	17 nM
Nc1nc2cnc(C(=O)N3CC[C@H]4C[C@@H]3c3c(Cl)cc(C(F)(F)F)cc3O4)cc2c2c1COC2 [Example Ca-60, (4-amino-1,3-dihydrofuro[3,4-c][1,7]naphthyridin-8-yl)((2S,6R)-7-chloro-9-(trifluoromethyl)-3,4-dihydro-2H-2,6-methanobenzo[b][1,5]oxazocin-5(6H)-yl)methanone]	227 nM
C[C@H]1CN(C(=O)c2cc3c4c(c(N)nc3cn2)COC4)[C@H]2c3ccc(C(F)(F)F)cc3C[C@H]2O1 [Example Cb-1, (4-amino-1,3-dihydrofuro[3,4-c][1,7]naphthyridin-8-yl)((2S,4aS,9aR)-2-methyl-7-(trifluoromethyl)-2,3,9,9a-tetrahydroindeno[2,1-b][1,4]oxazin-4(4aH)-yl)methanone]	71 nM
